In US10342221B2, “Generation of an inducible pericyte-specific CRE mouse model” (University of Southern California, priority 2016, dated 2019):
Like-named read-outs stand apart in the source and are kept apart here.

Tests used:
[1] = system: pericytes expressing Cre-dependent diphtheria toxin receptor; assay type: in vivo, mouse; conditions: TAM-treated Pericyte-CreER; iDTR mice; DT 1 μg i.p. per day for 10 days; 3 days after DT; versus vehicle
[2] = system: hippocampal function; assay: Behavioral tests: novel object location and contextual fear conditioning; assay type: in vivo, mouse
Procedure: Novel object location test was performed as the Inventors have previously reported. Animals were placed in a […] and allowed to habituate to the testing area for 10 min. Animals were then placed back in their cages and 2 identical approximately 5×5 cm objects were placed in the top left and right corner of the testing area. Animals were allowed to explore the two objects in the testing area for 5 min before being returned to their cages. After an hour interval one of the objects was relocated and the animals were allowed to explore the testing area once again for 3 min. After each trial, the testing area and the objects were thoroughly cleaned with 70% ethanol solution. All the trials, including habituation, were recorded with a high resolution camera and the amount of time each animal spent exploring the objects was analyzed. Any animals that presented a preference for either of the two identical objects, before replacement with the novel location, were eliminated from the analysis. Both male and female animals were used in the study.
Long-term memory formation paradigm in contextual fear conditioning was adapted from a previously described protocol with modifications. The experiment was performed using conditioning chamber made of plexiglas housed in a soundproof isolation cubicle and equipped with a stainless-steel grid floor connected to a solid-state shock scrambler. The scrambler was connected to an electronic constant-current shock source that was controlled via an interface connected to a computer running FreezeFrame software (Coulbourn Instruments, Allentown, Pa., USA). A digital camera was mounted on the steel ceiling and behavior was recorded. […] Hippocampus-dependent fear memory formation was evaluated by scoring freezing behavior (the absence of all movement except for respiration). Percentage of total freezing time was assessed using the automated FreezeFrame system with a threshold set at 10%. […]

[3] = system: pericytes expressing Cre-dependent diphtheria toxin receptor
Procedure: (§1) Animals were sacrificed at 3 days post DT or vehicle treatment (FIG. 3A) or 15 days post DT or vehicle treatment (FIG. 4A) as indicated, and brains were collected and analyzed.
(§2) Animals were anesthetized with an i.p. injection of 100 mg/kg of ketamine and 50 mg/kg of 10 xylazine, and transcardially perfused first with 15 ml saline, followed by 20 ml of 4% paraformaldehyde (PFA) in PBS. Brains were removed, and post-fixed overnight at 4° C. before brain sections were cut at 30 μm thickness. Sections were blocked with 5% normal donkey serum (Vector Laboratories)/0.1% Triton-X/0.01M PBS and incubated with primary antibody diluted in blocking solution overnight at 4° C. […] To visualize brain microvessels, sections were incubated with Dylight 488-conjugated L. esculentum Lectin as the Inventors have previously reported. […] Sections were imaged with a Zeiss LSM 510 confocal laser-scanning microscope using a series of high-resolution optical sections (1,024×1,024-pixel format) that were captured with a 25× water-immersion objective, with 1× zoom at 1-μm step intervals for Z-stacks. Laser settings for gain, digital offset and laser intensity were kept standardized between different treatments and experiments. Z-stack projections and pseudo-coloring were performed using ZEN software (Carl Zeiss Microimaging), and image post-analysis were performed using ImageJ software.
Tissue was incubated for 30 min in 20 μg/ml Proteinase K and the In Situ Cell Death Detection Kit (Roche) was used per the manufacturer's instructions. Sections were coverslipped as described above. For each image, ten microns maximum projection z-stacks were reconstructed and analyzed using ImageJ. […] In each animal 5 randomly selected fields from the cortex were analyzed in 3 nonadjacent sections (˜100 μm apart). Three animals per group were analyzed.
The quantitative analysis of pericyte coverage and numbers was restricted to CD13-positive cells that were associated with brain capillaries defined as microvessels ≤6 μm in diameter, as previously described. The endothelial-specific Lycopersicon esculentum lectin was used to visualize endothelial vascular profiles, and CD13 coverage of brain capillaries was determined as CD13-positive area (percentage) occupying lectin-positive endothelial capillary profiles, as previously. For each image, ten microns maximum projection z-stacks were reconstructed and analyzed using ImageJ. Pericyte numbers were determined by counting the number of CD13-positive cell bodies on the abluminal side of the endothelial membrane (lectin) that co-localized with DAPI (4′,6-diamidino-2-phenylindole)-positive nuclei and tdTomato-positive cell bodies using the Image J Cell Counter plug-in, as the Inventors and others previously described. The number of pericytes was expressed per mm^2 of tissue.

[4] = system: cerebral blood flow (CBF) response; assay: Cerebral blood flow responses by laser-Doppler flowmetry
Procedure: as §1
Animals were initially anesthetized with 100 mg/kg of ketamine and 50 mg/kg of xylazine and were placed on a heating pad (37° C.). The cranium of the mouse was firmly secured in a stereotaxic frame. A high speed dental drill (tip FST 19007-05, Fine Science Tools Inc., Foster City, Calif.) was used to thin a square cranial window about 2×2 mm over the parietal cortex, and 45 degree forceps were used to remove the square piece of skull. Gelfoam (Pharmacia & Upjohn Company, Kalamazoo, Mass.) was applied immediately to control any cranial or dural bleeding. A sterile 5 mm glass cover slip was then placed on the dura mater and sealed with a 1:1 mixture of bone cement and cyanoacrylate based glue.
CBF responses to hindlimb stimulation in anesthetized mice (˜1% isoflurane) were determined using laser-Doppler flowmetry as previously described. The tip of the laser-Doppler probe (Transonic Systems Inc., Ithaca, N.Y.) was stereotaxically placed 0.5 mm above the cranial window over the hindlimb region of the primary somatosensory cortical area. CBF was recorded following electrical stimulation of the hind-limb using a 60 s long stimulus (7 Hz, 2 ms pulse duration). The percentage increase in CBF due to stimulation was obtained by subtracting the baseline CBF from the stable maximum plateau value reached during stimulus, and averaged over three trials per mouse. For CBF response to drug application, the LDF probe was placed stereotaxically over the center of an open cranial window (center at AP=−0.94 mm, L=1.5 mm). Drugs (10 μM Acetylcholine, and 400 μM Adenosine, all from Sigma) were superfused individually over the window, and responses recorded, as the Inventors reported previously. Arterial blood pressure was monitored continuously during the experiment. pH and blood gases were monitored before and after CBF recordings.

[5] = system: neurons; assay: NeuN-positive neuron numbers and SMI-312 neuritic density
Procedure: as §1
Animals were anesthetized with an i.p. injection of 100 mg/kg of ketamine and 50 mg/kg of 10 xylazine, and transcardially perfused first with 15 ml saline, followed by 20 ml of 4% paraformaldehyde (PFA) in PBS. Brains were removed, and post-fixed overnight at 4° C. before brain sections were cut at 30 μm thickness. Sections were blocked with 5% normal donkey serum (Vector Laboratories)/0.1% Triton-X/0.01M PBS and incubated with primary antibody diluted in blocking solution overnight at 4° C. […] Sections were imaged with a Zeiss LSM 510 confocal laser-scanning microscope using a series of high-resolution optical sections (1,024×1,024-pixel format) that were captured with a 25× water-immersion objective, with 1× zoom at 1-μm step intervals for Z-stacks. Laser settings for gain, digital offset and laser intensity were kept standardized between different treatments and experiments. Z-stack projections and pseudo-coloring were performed using ZEN software (Carl Zeiss Microimaging), and image post-analysis were performed using ImageJ software.
For each image, ten microns maximum projection z-stacks were reconstructed and analyzed using ImageJ. NeuN-positive neurons were determined using the ImageJ Cell Counter analysis tool. In each animal, five randomly selected fields from the cortex and the hippocampus in three nonadjacent sections (˜100 μm apart) were analyzed. Six animals per group were analyzed.

[6] = system: blood-brain barrier; assay: Blood-brain barrier integrity: extravascular IgG and fibrin deposits, ZO-1 tight junction length
Procedure: as §1, §2
For each image, ten microns maximum projection z-stacks were reconstructed and analyzed using ImageJ. The levels of extravascular blood-derived fibrin and IgG deposits indicating BBB breakdown were determined as previously described.
For each image, ten microns maximum projection z-stacks were reconstructed and analyzed using ImageJ. The length of ZO-1-positive tight junctions occupying lectin-positive capillary profiles was determined using the NeuronJ plugin for ImageJ, expressed as the length of ZO-1 (mm) over the lectin-positive capillary area (mm^2) as the Inventors have previously reported. ZO-1 and lectin stainings were performed as described above. The length of ZO1-positive tight junctions was normalized to the total area of lectin-positive microvessels using the Image J Area measurement tool.

[7] = control iDTR animals treated with TAM and DT
[8] = cortex, TAM-treated pericyte-CreER, iDTR mice, 3 days after DT compared to vehicle
[9] = TAM-treated pericyte-CreER, iDTR mice, 3 days after DT compared to vehicle
[10] = somatosensory cortex and hippocampus, respectively, 15 days after DT compared to vehicle

## diphtheria toxin [DT]
[1]
  loss in DTR protein levels in brain capillaries: 90%
  loss of PDGFRβ protein in brain capillaries: 60%
[2]; TAM-treated pericyte-CreER, iDTR mice, 15 days after DT treatment
  novel object location and fear conditioning: significant behavior deficits
[2]; TAM-treated pericyte-CreER, iDTR mice, before treatment (0 d), 6 d of DT treatment, 3 days after last DT injection, versus vehicle
  novel object location and fear conditioning: did not show deficits
[2]; [7]
  novel object location and fear conditioning: no differences
[3]; 3 days after DT treatment
  number of astrocytes, astrocytic endfeet coverage on microvessels or microglia density: no changes were observed
[3]; TAM-treated control iDTR mice, same DT injection protocol
  pericyte coverage: no changes in pericyte coverage
[3]; cortex and hippocampus, 3 days after DT treatment compared to vehicle
  loss of tdTomato-positive pericytes in brain capillaries: 95%
[3]; cortex, 3 days after DT compared to vehicle
  pericyte cell death by TUNEL staining of perivascular tdTomato-positive nuclei: contained fragmented DNA
[3]; [8]
  reduction in pericyte capillary coverage (CD13 on lectin-positive profiles): 50%
  reduction in pericyte density (CD13-positive pericyte cell bodies): 60%
[3]; hippocampus, TAM-treated pericyte-CreER, iDTR mice, 3 days after DT compared to vehicle
  reduction in pericyte density (CD13-positive pericyte cell bodies): 58%
[4]; 10 μM acetylcholine superfused, 3 days after DT treatment or vehicle
  CBF response in the presence of acetylcholine: no difference in CBF response
[4]; 400 μM adenosine superfused, 3 days after DT treatment or vehicle
  CBF response in the presence of adenosine: no difference in CBF response
[4]; [9]
  reduction in CBF response to hind limb electrical stimulus: 50%
[4]; control iDTR animals that received TAM and DT treatment
  change in CBF responses: No significant change
[5]; before DT treatment and 3 days after last DT injection compared to vehicle
  neuronal or neuritic changes: No significant neuronal or neuritic changes
[5]; [7]
  neuron counts and neuritic density: normal neuron counts and neuritic density
[5]; [10]
  loss of NeuN-positive neuronal cell bodies: 20-25%
  reduction in SMI-312-positive neuritic density: 30-40%
[6]; [9]
  reduction in the ZO-1 length on brain capillaries: 50%
[6]; control iDTR animals that received TAM and DT
  BBB changes: did not show any BBB changes
[6]; [8]
  increase in fibrin deposits: > 4 fold
  increase in plasma-derived immunoglobulin G deposits: > 4 fold
[6]; iDTR control animals treated with TAM and DT
  ZO-1 expression: No changes
